Laboratory results reported in patent publication US20050267204A1, “Synergistic gold-containing compositions” (MEDICAL INNOVATIONS LIMITED, priority 1996, published 2005).
Read-outs that look alike come from different tables or passages of the source.

Assays:
[1] = system: TPA-induced inflammatory cell infiltration into the dermis; assay: Inhibition of TPA-induced inflammatory cell infiltration into the dermis of mice; format: in vivo, BALB/c mice; details: for Relative potency: hydrocortisone acetate = 1.0; for Potency for inhibition of TPA-induced inflammatory cell infiltration (in words): ranking in text; for Emax: read-out: Emax (% inhibition)
Method: (§1) The mice were housed in stainless steel cages, 6 mice per cage under normal laboratory conditions (room temperature at about 22° C.) at least 7 days before the experiments for acclimatization. Food and water were allowed ad libitum throughout the experiment period. The backs of the mice were shaved with an electric clipper two days before each treatment and only those mice showing no hair regrowth were used (i.e., the mice in the resting phase of the hair growth cycle were selected). During treatment, the mice were held with their tails and put on top of the cage so that they grasped the cage and rested there. The solutions were applied to an area approximately 2 cm×2 cm on the shaved back of the mice by using a “Pipetman” to apply the solution. If auranofin ointment or ointment base was applied, the amount was standardized by using a microspatula which was crimped at one end, the ointment was then put into the ridge and the excess removed by means of another microspatula and applied sparingly twice a day. After a fixed time, the mice were killed routinely by cervical dislocation between 9 a.m. and 11 a.m. to avoid variations due to circadian rhythms, and an area (1 cm×1 cm) was excised from the centre of the treated area by scalpel and scissors. The rest of the tissues were disposed by combustion. The tissues were then fixed, embedded, sectioned and stained.
Infiltration of inflammatory cells was determined by the same image analysis system using the section taken from the block of mouse skin embedded in paraffin wax or Spurr's resin and stained with haematoxylin and eosin or toluidine blue respectively. For each section, 10 fields, unless otherwise stated, were chosen randomly and the cell density per mm^2 of field determined. The average value for the 10 fields was obtained and entered as one value for each mouse. The mean and SEM for the six mice in each treatment group were calculated.
The measurement of the inflammatory cell infiltration included the background values which included other materials in the dermis stained in the same way.
(§2) The percent inhibition of drug on TPA-induced skin responses (i.e., epidermal hyperplasia, inflammatory cell infiltration and skin-fold thickness) was calculated by using the following formula: [formula]
(§3) This provides estimates of (a) the potency, (b) the efficacy or maximum effect (Emax) and the slope of the log concentration-response curve by using Hill coefficient (γ). The Hill Equation may be expressed as follows: [formula] where IC50 is the drug concentration producing 50% of the maximal response and Emax refers to the maximal effect produced by the drug and is also termed efficacy. Efficacy is the measurement of the intrinsic ability of a drug to initiate a response once it occupies receptor sites. […] The Hill coefficient (γ) measures the slope of the dose-effect curve which can be markedly influenced by the shape of the curve that describes the binding of the drug to the receptor. For many drugs, y lies between 0.6 and 1.5. […] On the other hand, when γ is less than 1, with a shallow hyperbolic concentration effect relationship, the activity occurs over a wide range of drug levels.
(§4) In the present study, concentration-response curves were obtained for a series of corticosteroids. In these experiments, curve fitting was accomplished using a computer programme called “The Scientist” (MicroMath Scientific Software, Salt Lake City, Utah, USA.) in which the parameters, Emax, IC50 and Hill coefficient (γ) for each steroids were estimated by using non-linear regression and least square fits.
Mice were divided into treatment groups. TPA and corticosteroids were premixed to the concentrations required and applied to the backs of mice immediately.

[2] = system: TPA-induced epidermal hyperplasia; assay: Inhibition of TPA-induced epidermal hyperplasia (epidermal thickness) on back skin of mice; format: in vivo, BALB/c mice; details: for Relative potency: hydrocortisone acetate = 1.0; for Potency for inhibition of TPA-induced epidermal hyperplasia (in words): ranking in text; for Emax: read-out: Emax (% inhibition)
Method: as §1
Epidermal thickness was determined by image analysis. This image analysis system was a minicomputer (Tracor Northern TN8500) attached to a light microscope (Zeiss Axioplan) and a camcorder (Sony DXC-3000P). Sections were taken from each tissue block and 20 measurements were taken at fixed intervals from each section. The average value for the 20 measurements was obtained and entered as one value for each mouse. The mean and SEM for the six mice in each treatment group were calculated.
as §2, §3, §4
Mice were divided into treatment groups. TPA and corticosteroids were premixed to the concentrations required and applied to the backs of mice immediately. For those steroids not very soluble in acetone (i.e., betamethasone, dexamethasone, hydrocortisone and hydrocortisone acetate), the drugs were dissolved in 100 μL dimethylformamide before further dilution with acetone. The efficacy of corticosteroids in inhibiting epidermal hyperplasia, inflammatory cell infiltration and skin-fold thickness was assessed as described previously. Concentration-response curves were determined after computer-fitting of data.

[3] = Hill equation fit, means ± SD, steroid premixed with TPA, topical
[4] = Hill equation fit, means ± SD, steroid premixed with TPA, topical, read-out: IC50 (M × 10^−4)
[5] = Mus musculus, from Hill equation, concentration that produced 50% of Emax, read-out: IC50 for inhibition of inflammatory cell infiltration in the dermis (M × 10^−4)
[6] = Mus musculus, read from concentration-response curve, concentration that inhibited 50% of the TPA effect, read-out: IC50 for inhibition of inflammatory cell infiltration in the dermis (M × 10^−4)
[7] = Mus musculus, topical, Hill equation fit, means ± SD, steroid premixed with TPA, topical, read-out: IC50 (M × 10^−4)
[8] = Mus musculus, Hill equation fit, means ± SD, steroid premixed with TPA, topical
[9] = Mus musculus, from Hill equation, concentration that produced 50% of Emax, read-out: IC50 for inhibition of epidermal thickening (M × 10^−4)
[10] = Mus musculus, read from concentration-response curve, concentration that inhibited 50% of the TPA effect, read-out: IC50 for inhibition of epidermal thickening (M × 10^−4)
[11] = IC50 without auranofin divided by IC50 with auranofin (0.2%)
[12] = Mus musculus, with auranofin (0.2%), from computer fitted graph, means ± SD, read-out: Apparent IC50 (M × 10^−4) with auranofin
[13] = Mus musculus, without auranofin, from computer fitted graph, means ± SD, read-out: Apparent IC50 (M × 10^−4) without auranofin

IC50 [1, 5] [mM] | IC50 [1, 6] [mM] | IC50 [1, 7] [mM] | IC50 [2, 9] [mM] | IC50 [2, 10] [mM] | IC50 [2, 7] [mM] | Structure (SMILES) | Relative potency ([1]; from Hill-equation IC50) | Relative potency ([1]; from IC50 read from curve) | Potency for inhibition of TPA-induced inflammatory cell infiltration (in words) [1] | Relative potency ([2]; from Hill-equation IC50) | Relative potency ([2]; from IC50 read from curve) | Potency for inhibition of TPA-induced epidermal hyperplasia (in words) [2] | Emax [1, 8] [%] | Emax [2, 8] [%] | other results
– | – | – | – | – | – | C[C@@H]1C[C@H]2[C@@H]3C[C@H](F)C4=CC(=O)C=C[C@]4(C)[C@H]3[C@@H](O)C[C@]2(C)[C@H]1C(=O)COC(=O)C(C)(C)C [Fluocortolone 21-pivalate] | 70.30 | 100.0 | medium to strong potencies | 91.68 | 116.67 | medium to strong potencies | – | – | Emax (% inhibition) [1, 3]: 97.91 ± 12.16 % inhibition; IC50 [1, 4]: 0.11 ± 0.04 mM; IC50 ([1]; from Hill equation, concentration that produced 50% of Emax, read-out: IC50 for inhibition of inflammatory cell infiltration in the dermis (M × 10^−4)): 0.11 mM; IC50 ([1]; read from concentration-response curve, concentration that inhibited 50% of the TPA effect, read-out: IC50 for inhibition of inflammatory cell infiltration in the dermis (M × 10^−4)): 0.11 mM; Emax (% inhibition) [2, 3]: 85.18 ± 9.51 % inhibition; IC50 [2, 4]: 0.04 ± 0.015 mM; IC50 ([2]; from Hill equation, concentration that produced 50% of Emax, read-out: IC50 for inhibition of epidermal thickening (M × 10^−4)): 0.04 mM; IC50 ([2]; read from concentration-response curve, concentration that inhibited 50% of the TPA effect, read-out: IC50 for inhibition of epidermal thickening (M × 10^−4)): 0.06 mM
0.031 | 0.06 | 0.031 ± 0.005 | 0.097 | 0.11 | 0.097 ± 0.013 | CC1(C)O[C@@H]2C[C@H]3[C@@H]4CCC5=CC(=O)CC[C@]5(C)[C@@]4(F)[C@@H](O)C[C@]3(C)[C@]2(C(=O)CCl)O1 [Halcinonide] | 249.45 | 183.33 | medium to strong potencies | 37.80 | 63.64 | medium to strong potencies | 90.3 ± 6.29 | 92.5 ± 2.98 | –
7.73 | 11 | 7.73 ± 1.39 | 3.67 | 7 | 3.67 ± 1.2 | CC(=O)OCC(=O)[C@@]1(O)CC[C@H]2[C@@H]3CCC4=CC(=O)CC[C@]4(C)[C@H]3[C@@H](O)C[C@@]21C [Hydrocortisone acetate, hydrocortisone acetate] | 1.0 | 1.0 | low to medium potencies | 1.0 | 1.0 | low to medium potencies | 79.4 | 79.6 ± 7.62 | –
6.15 | 6 | 6.15 ± 0.966 | 4.62 | 4.51 | 4.62 ± 1.32 | C[C@]12CCC(=O)C=C1CC[C@@H]1[C@@H]2[C@@H](O)C[C@@]2(C)[C@H]1CC[C@]2(O)C(=O)CO [Hydrocortisone, hydrocortisone] | 1.26 | 1.83 | low to medium potencies | 0.79 | 1.55 | low to medium potencies | 100 | 99 ± 9.54 | Synergistic factor [1, 11]: 1.94; IC50 [1, 12]: 3.1 ± 0.412 mM; IC50 [1, 13]: 6 ± 0.966 mM; Synergistic factor [2, 11]: 2.05; IC50 [2, 12]: 2.2 ± 1.12 mM; IC50 [2, 13]: 4.5 ± 1.32 mM; Synergism with auranofin, epidermal hyperplasia (in words) ([2]; auranofin (0.2%) co-administered): minor degree of synergism; Percent increase in the apparent potency of the steroid ([2]; in presence of auranofin (0.2%)): 100%
